Results from patent US20070202502A1, “Assay For Bipolar Affective Disorder” (priority 2004, published 2007).
Entries after “also recorded” stand apart in the source; their conditions may differ.

Test system: mouse FAT mRNA
Test: FAT mRNA expression in whole brain of mice treated with lithium or valproate, quantitative real-time PCR
Details: C57B16 mice, intraperitoneal once daily for 7 days (lithium 340 mg/kg/day; valproate 350 mg/kg/day)

Question: Which “effect on relative FAT mRNA expression level (relative to GAPDH mRNA)” value does the source give for CCCC(CCC)C(=O)O [valproate, 2-propylpentanoic acid] here?
Answer: Its value is “appear to reduce; also recorded: appears to be reduced”.
